In ChEMBL document CHEMBL4823282, “Novel Broad-Spectrum Antimicrobial Peptide Derived from Anoplin and Its Activity on Bacterial Pneumonia in Mice” (J Med Chem, 2021):
In brackets after ≈: the same amount, converted by molar mass. Activity calls are given as the source filed them. No cut-off for these calls is given here. Where a SMILES comes first, the peptide text is derived from it. Bridges are numbered along the chain shown (N, C = ends). [ ]: non-standard residue; d: D form. The star is where a group is joined. X1 = CC[C@H](C)CCCCC(=O)*; Dab = NCC[C@H](N)C(=O)O

How the values were obtained:
Acinetobacter baumannii = assay: Antibacterial activity against Acinetobacter baumannii ATCC 19606 incubated for 18 hrs by CLSI based broth dilution method; assay type: functional; conditions: ATCC 19606 = CIP 70.34 = JCM 6841
Enterococcus faecalis = assay: Antibacterial activity against Enterococcus faecalis ATCC 29212 incubated for 18 hrs by CLSI based broth dilution method; assay type: functional
Bacteria [1] = assay: Antibacterial activity against Gram-positive bacteria incubated for 18 hrs by CLSI based broth dilution method; assay type: functional
Staphylococcus aureus [2] = assay: Bactericidal activity against Staphylococcus aureus ATCC 25923 at 2MIC by time-kill assay; assay type: functional, organism-based; conditions: time 24.0 hrs, TDE = time-dependent effect
Pseudomonas aeruginosa [3] = assay: Antibacterial activity against rifampin-resistant Pseudomonas aeruginosa ATCC 27853 incubated for 18 hrs by CLSI based broth dilution method; assay type: functional
[4] = test system: Staphylococcus epidermidis; assay: Antibacterial activity against Staphylococcus epidermidis ATCC 12228 incubated for 18 hrs by CLSI based broth dilution method; assay type: functional
[5] = Toxicity in BALB/C mouse assessed as mouse death at 15 to 25 mg/kg, ip measured within 2 days; assay type: organism-based; conditions: in vivo, 48 h, dose 15-25 mg/kg, time 2 day
Pseudomonas aeruginosa [6] = assay: Synergistic antibacterial activity against Pseudomonas aeruginosa ATCC 27853 at 2 times MIC incubated for 18 to 24 hrs in presence of 2 times MIC of rifampicin by broth microdilution assay based checkerboard assay; assay type: functional; conditions: time 18-24 hrs
[7] = Selectivity ratio of MHC10 for BALB/C mouse erythrocytes to MIC for gram-negative bacteria; assay type: toxicity
Bacillus subtilis = assay: Antibacterial activity against Bacillus subtilis ATCC 23857 incubated for 18 hrs by CLSI based broth dilution method; assay type: functional
Cell membrane [8] = assay: Disruption of membrane integrity in Staphylococcus aureus ATCC 25923 assessed as bacterial death at 1 times MIC measured within 0.5 hrs by scanning electron microscopy; assay type: subcellular
Bacteria [9] = assay: Antibacterial activity against bacteria incubated for 18 hrs by CLSI based broth dilution method; assay type: functional
Klebsiella pneumoniae [10] = assay: Synergistic antibacterial activity against Klebsiella pneumoniae ATCC 700603 at 2 times MIC incubated for 18 to 24 hrs in presence of 2 times MIC of rifampicin by broth microdilution assay based checkerboard assay; assay type: functional; conditions: time 18-24 hrs
Fungi = assay: Antibacterial activity against fungi incubated for 18 hrs by CLSI based broth dilution method; assay type: functional
[11] = Selectivity ratio of MHC10 for BALB/C mouse erythrocytes to MIC for fungi; assay type: toxicity
[12] = Cytotoxicity against human glomerular mesangial cells incubated for 12 hrs by MTT assay; assay type: cell-based; conditions: Glomerular mesangial cell
Cell membrane [13] = assay: Induction of inner membrane permeabilization in Klebsiella pneumoniae ATCC 700603 at 0.5 to 4MIC using ONPG as substrate by spectroscopic method; assay type: subcellular; conditions: Klebsiella pneumoniae 700603, 0.5 to 4M
Staphylococcus aureus [14] = assay: Antibacterial activity against Staphylococcus aureus ATCC 25923 incubated for 18 hrs by CLSI based broth dilution method; assay type: functional
Staphylococcus aureus [15] = assay: Antibacterial activity against Staphylococcus aureus ATCC 25923 incubated with 0.2 to 0.02 ug/ml trypsin for 6 hrs followed by bacterial addition and measured after 18 hrs by CLSI based broth dilution method; assay type: functional, organism-based; conditions: dose 0.2-0.02 µg/ml, time 23.0 hrs
Staphylococcus aureus [16] = assay: Disruption of membrane integrity in Staphylococcus aureus ATCC 25923 assessed as membrane blebbing at 1 times MIC measured within 0.5 hrs by scanning electron microscopy; assay type: functional, organism-based
Klebsiella pneumoniae [17] = assay: Synergistic antibacterial activity against Klebsiella pneumoniae ATCC 700603 at 2 times MIC incubated for 18 to 24 hrs in presence of 2 times MIC of gentamycin by broth microdilution assay based checkerboard assay; assay type: functional; conditions: time 18-24 hrs
Bacteria [18] = assay: Antibacterial activity against Gram-negative bacteria incubated for 18 hrs by CLSI based broth dilution method; assay type: functional
Klebsiella pneumoniae [19] = assay: Antibacterial activity against Klebsiella pneumoniae ATCC 700603 infected in BALB/C mouse assessed as reduction in bacterial load in lung at 5 mg/kg, ip measured within 24 hrs by agar plate counting method (reference value: 2.77 x 10^7 CFU/mg); assay type: functional
Lipopolysaccharide (LPS) = assay: Binding affinity to LPS (unknown origin) assessed as bacterial killing at 2 times MIC preincubated for 1 hr followed by Escherichia coli ATCC 25922 addition and measured after 2 hrs by absorbance method; conditions: time 3.0 hrs
Pseudomonas aeruginosa [20] = assay: Antibacterial activity against Pseudomonas aeruginosa ATCC 27853 incubated for 18 hrs by CLSI based broth dilution method; assay type: functional
Erythrocyte = assay: Hemolytic activity in BALB/C mouse erythrocytes incubated for 1 hr by absorbance method; assay type: ADME, cell-based
Pseudomonas aeruginosa [21] = assay: Antibacterial activity against gentamicin-resistant Pseudomonas aeruginosa ATCC 27853 incubated for 18 hrs by CLSI based broth dilution method; assay type: functional
Escherichia coli [22] = assay: Synergistic antibacterial activity against Escherichia coli ATCC 25922 at 2 times MIC incubated for 18 to 24 hrs in presence of 2 times MIC of rifampicin by broth microdilution assay based checkerboard assay; assay type: functional; conditions: time 18-24 hrs
[23] = Selectivity ratio of MHC10 for BALB/C mouse erythrocytes to MIC for bacteria; assay type: toxicity
Staphylococcus aureus [24] = assay: Antibacterial activity against Staphylococcus aureus ATCC 25923 at 0.5 to 1 times MIC incubated for 24 hrs by crystal violet staining based assay; assay type: functional, organism-based
Klebsiella pneumoniae [25] = assay: Antibacterial activity against Klebsiella pneumoniae ATCC 700603 incubated for 18 hrs by CLSI based broth dilution method; assay type: functional
Cell membrane [26] = assay: Disruption of membrane integrity in Klebsiella pneumoniae ATCC 700603 assessed as bacterial death at 1 times MIC incubated for 0.5 to 2 hrs by scanning electron microscopy; assay type: subcellular; conditions: Klebsiella pneumoniae 700603, time 0.5-2 hrs
[27] = Selectivity ratio of MHC10 for BALB/C mouse erythrocytes to MIC for gram positive bacteria; assay type: toxicity
Klebsiella pneumoniae [28] = assay: Bactericidal activity against Klebsiella pneumoniae 700603 at 2MIC by time-kill assay relative to control; assay type: functional
Staphylococcus aureus [29] = assay: Disruption of bacterial cell membrane in Staphylococcus aureus ATCC 25923 assessed as increase in PI uptake incubated for 30 to 120 mins by FACS flow cytometry; assay type: functional, organism-based; conditions: time 30-120 min
Cell membrane [30] = assay: Disruption of membrane integrity in Staphylococcus aureus ATCC 25923 assessed as membrane shrinking at 1 times MIC measured within 0.5 hrs by scanning electron microscopy; assay type: subcellular
[31] = Toxicity in ip dosed BALB/C mouse measured within 14 days by Karber-method; assay type: organism-based; conditions: in vivo, time 14 day
Escherichia coli [32] = assay: Antibacterial activity against Escherichia coli ATCC 25922 incubated for 18 hrs by CLSI based broth dilution method; assay type: functional
Cell membrane [33] = assay: Disruption of membrane integrity in Klebsiella pneumoniae ATCC 700603 assessed as membrane swelling at 1 times MIC incubated for 0.5 to 2 hrs by scanning electron microscopy; assay type: subcellular; conditions: Klebsiella pneumoniae 700603, time 0.5-2 hrs
Klebsiella pneumoniae [34] = assay: Antibacterial activity against Klebsiella pneumoniae ATCC 700603 infected in BALB/C mouse assessed as reduction in bacterial load at 5 mg/kg, ip by hematoxylin and eosin staining based assay; assay type: functional, organism-based
Klebsiella pneumoniae [35] = assay: Antibiofilm activity against Klebsiella pneumoniae ATCC 700603 at 2 to 4 times MIC incubated for 24 hrs by crystal violet staining based assay; assay type: functional, organism-based
[36] = 2M, TDE = time-dependent effect

Question: For `NCCCC[C@H](NC(=O)[C@H](CCCCN)NC(=O)[C@H](Cc1c[nH]c2ccccc12)NC(=O)[C@H](CCCCN)NC(=O)[C@H](CCCCN)NC(=O)[C@H](Cc1c[nH]c2ccccc12)NC(=O)[C@H](Cc1c[nH]c2ccccc12)NC(=O)[C@@H](N)CCCCN)C(=O)N[C@@H](Cc1c[nH]c2ccccc12)C(=O)N[C@@H](Cc1c[nH]c2ccccc12)C(N)=O` (H-KWWKKWKKWW-NH2), which MIC (Acinetobacter baumannii) is on record?
Answer: 8 µM (≈ 12.7 µg/mL)

Question: And the MIC (Enterococcus faecalis)?
Answer: 8 µM (≈ 12.7 µg/mL)

Question: What about the MIC (Bacteria [1]) of the same compound?
Answer: 4.76 µM (≈ 7.56 µg/mL)

Question: And the Activity (Staphylococcus aureus [2])?
Answer: Tde

Question: And the MIC (Pseudomonas aeruginosa [3])?
Answer: 2 µM (≈ 3.18 µg/mL)

Question: And the MIC [4]?
Answer: 4 µM (≈ 6.36 µg/mL)

Question: And the Activity [5]?
Answer: Toxic

Question: And the FIC (Pseudomonas aeruginosa [6])?
Answer: 0.5625

Question: And the selectivity ratio [7]?
Answer: 28.2

Question: What about the MIC (Bacillus subtilis) of the same compound?
Answer: 4 µM (≈ 6.36 µg/mL)

Question: And the Activity (Cell membrane [8])?
Answer: Active

Question: And the MIC (Bacteria [9])?
Answer: 4.76 µM (≈ 7.56 µg/mL)

Question: What about the FIC (Klebsiella pneumoniae [10]) of the same compound?
Answer: 0.3125

Question: What about the MIC (Fungi) of the same compound?
Answer: 4.76 µM (≈ 7.56 µg/mL)

Question: What about the selectivity ratio [11] of the same compound?
Answer: 28.2

Question: What about the IC50 [12] of the same compound?
Answer: 40.2 µM

Question: What about the Activity (Cell membrane [13]) of the same compound?
Answer: inactive

Question: And the MIC (Staphylococcus aureus [14])?
Answer: 4 µM (≈ 6.36 µg/mL)

Question: And the Activity (Staphylococcus aureus [15])?
Answer: Active

Question: What about the Activity (Staphylococcus aureus [16]) of the same compound?
Answer: Active

Question: What about the FIC (Klebsiella pneumoniae [17]) of the same compound?
Answer: 0.5625

Question: What about the MIC (Bacteria [18]) of the same compound?
Answer: 4.76 µM (≈ 7.56 µg/mL)

Question: And the Activity (Klebsiella pneumoniae [19])?
Answer: 4.12 10^4CFU/mg

Question: What about the Activity (Lipopolysaccharide (LPS)) of the same compound?
Answer: Dose-Dependent Effect

Question: What about the MIC (Pseudomonas aeruginosa [20]) of the same compound?
Answer: 4 µM (≈ 6.36 µg/mL)

Question: What about the MHC10 (Erythrocyte) of the same compound?
Answer: 134.38 µM

Question: What about the MIC (Pseudomonas aeruginosa [21]) of the same compound?
Answer: 2 µM (≈ 3.18 µg/mL)

Question: And the FIC (Escherichia coli [22])?
Answer: 0.75

Question: And the selectivity ratio [23]?
Answer: 28.2

Question: And the Activity (Staphylococcus aureus [24])?
Answer: Active

Question: What about the MIC (Klebsiella pneumoniae [25]) of the same compound?
Answer: 8 µM (≈ 12.7 µg/mL)

Question: And the Activity (Cell membrane [26])?
Answer: Active

Question: And the selectivity ratio at 18 h [27]?
Answer: 28.2

Question: What about the Activity (Klebsiella pneumoniae [28]) of the same compound?
Answer: 100%

Question: And the Activity (Klebsiella pneumoniae [28]; [36])?
Answer: Tde

Question: What about the Activity (Staphylococcus aureus [29]) of the same compound?
Answer: Active

Question: What about the Activity (Cell membrane [30]) of the same compound?
Answer: Active

Question: What about the LD50 at 336 h [31] of the same compound?
Answer: 66.5 mg/kg

Question: What about the MIC (Escherichia coli [32]) of the same compound?
Answer: 4 µM (≈ 6.36 µg/mL)

Question: Which results are given for `CC[C@H](C)CCCCC(=O)N[C@@H](CCN)C(=O)N[C@H](C(=O)N[C@@H](CCN)C(=O)N[C@H]1CCNC(=O)[C@H]([C@@H](C)O)NC(=O)[C@H](CCN)NC(=O)[C@H](CCN)NC(=O)[C@H](CC(C)C)NC(=O)[C@@H](Cc2ccccc2)NC(=O)[C@H](CCN)NC1=O)[C@@H](C)O` (X1-[Dab]T[Dab][Dab][Dab][dF]L[Dab][Dab]T; lactam 4-C)?
Answer: MIC (Acinetobacter baumannii): 32 µM (≈ 38.5 µg/mL); MIC (Enterococcus faecalis): 128 µM (≈ 154 µg/mL); MIC (Bacteria [1]): 26.9 µM (≈ 32.4 µg/mL); Activity (Staphylococcus aureus [2]): Tde; MIC (Pseudomonas aeruginosa [3]): 2 µM (≈ 2.41 µg/mL); MIC [4]: 32 µM (≈ 38.5 µg/mL); Activity [5]: Toxic; Activity (Cell membrane [33]): Active; FIC (Pseudomonas aeruginosa [6]): 0.3125; selectivity ratio [7]: 90.5; MIC (Bacillus subtilis): 8 µM (≈ 9.63 µg/mL); Activity (Cell membrane [8]): inactive; MIC (Bacteria [9]): 12.3 µM (≈ 14.9 µg/mL); FIC (Klebsiella pneumoniae [10]): 0.3125; MIC (Fungi): 12.3 µM (≈ 14.9 µg/mL); selectivity ratio [11]: 4150; IC50 [12]: ≥ 512 µM; Activity (Cell membrane [13]): inactive; Activity (Klebsiella pneumoniae [34]): inactive; MIC (Staphylococcus aureus [14]): 16 µM (≈ 19.3 µg/mL); Activity (Staphylococcus aureus [16]): inactive; FIC (Klebsiella pneumoniae [17]): 0.5; MIC (Bacteria [18]): 5.66 µM (≈ 6.81 µg/mL); Activity (Klebsiella pneumoniae [19]): 3.21 10^4CFU/ml; Activity (Lipopolysaccharide (LPS)): Dose-Dependent Effect; MIC (Pseudomonas aeruginosa [20]): 4 µM (≈ 4.81 µg/mL); Activity (Klebsiella pneumoniae [35]): Active; MHC10 (Erythrocyte): >= 512 uM; MIC (Pseudomonas aeruginosa [21]): 2 µM (≈ 2.41 µg/mL); FIC (Escherichia coli [22]): 0.125; selectivity ratio [23]: 4150; Activity (Staphylococcus aureus [24]): Active; MIC (Klebsiella pneumoniae [25]): 4 µM (≈ 4.81 µg/mL); Activity (Cell membrane [26]): Active; selectivity ratio at 18 h [27]: 19; Activity (Klebsiella pneumoniae [28]; [36]): Tde; Activity (Staphylococcus aureus [29]): inactive; Activity (Cell membrane [30]): inactive; LD50 at 336 h [31]: 16.4 mg/kg; MIC (Escherichia coli [32]): 4 µM (≈ 4.81 µg/mL)
